Experimental data taken from patent US6525001B1, “Substituted pyrimidine and pyridine herbicides” (Mid-American Commercialization Corporation, priority 1997, dated 2003).

Key:
Assay type in all cases: in vivo
Set-up in all cases: key: 0 is no effect; 10 is complete control
[1] = test system: duck salad (Heteranthera limosa); test: Test B flood test
Outline: (§1)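 Each value is a visual injury score relative to controls, with 10 meaning complete control and 0 no effect. Evaluation took place twelve to sixteen days after the 2-leaf-stage plants were treated and kept in the greenhouse.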

[2] = test system: bamyardgrass (Echinochloa crus-galli); test: Test B flood test
Outline: as §1

[3] = test system: smallflower flatsedge (Cyperus difformis); test: Test B flood test
Outline: as §1

[4] = test system: rice (Oryza sativa); test: Test B flood test
Outline: as §1

[5] = test system: soybean (Glycine max); test: Test B pre-/postemergence
Outline: (§2)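 Response scores run from 0, meaning no effect, to 10, meaning complete control, assigned by eye relative to controls twelve to sixteen days after spraying. Treatment was both preemergence on planted seed and postemergence on plants at the 1- to 4-leaf stage.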

[6] = test system: crabgrass (Digitaria sanguinalis); test: Test B pre-/postemergence; details: for Plant response rating, Crabgrass: Preemergence
Outline: as §2

[7] = test system: wheat (Triticum aestivum); test: Test B pre-/postemergence
Outline: as §2

[8] = test system: purple nutsedge (Cyperus rotundus); test: Test B pre-/postemergence
Outline: as §2

[9] = test system: sugar beet (Beta vulgaris); test: Test B pre-/postemergence
Outline: as §2

[10] = test system: rape (Brassica napus); test: Test B pre-/postemergence
Outline: as §2

[11] = test system: blackgrass (Alopecurus myosuroides); test: Test B pre-/postemergence
Outline: as §2

[12] = test system: corn (Zea mays); test: Test B pre-/postemergence
Outline: as §2

[13] = test system: velvetleaf (Abutilon theophrasti); test: Test B pre-/postemergence
Outline: as §2

[14] = test system: cocklebur (Xanthium strumarium); test: Test B pre-/postemergence
Outline: as §2

[15] = test system: pigweed (Amaranthus retroflexus); test: Test B pre-/postemergence
Outline: as §2

[16] = Rate 62 g/ha, Postemergence (flood test)
[17] = Rate 125 g/ha, Postemergence section (flood test species)
[18] = Rate 250 g/ha, Postemergence (flood test species)
[19] = Preemergence, Rate 62 g/ha, scale of 0 to 10

Cc1cnc(-c2ccc(C(F)(F)F)cc2)nc1C(=O)c1cccc(OC(F)(F)F)c1 [Compound 75]
Ducksalad plant response rating [1, 16]: 0
Ducksalad plant response rating [1, 17]: 1
Plant response rating, Ducksalad [1, 18]: 2
Barnyardgrass plant response rating [2, 16]: 2
Barnyardgrass plant response rating [2, 17]: 2
Plant response rating, Barnyardgrass [2, 18]: 3
S. Flatsedge plant response rating [3, 16]: 0
S. Flatsedge plant response rating [3, 17]: 0
Plant response rating, S. Flatsedge [3, 18]: 1
Rice plant response rating [4, 16]: 1
Rice plant response rating [4, 17]: 1
Plant response rating, Rice [4, 18]: 1
Plant response rating, Soybean [5, 19]: 0
Soybean plant response rating ([5]; Rate 62 g/ha, Postemergence): 3
Soybean plant response rating ([5]; Rate 125 g/ha, Postemergence): 3
Plant response rating, Soybean ([5]; Rate 125 g/ha, Preemergence): 0
Plant response rating, Soybean ([5]; Rate 250 g/ha, Postemergence): 3
Plant response rating, Soybean ([5]; Rate 250 g/ha, Preemergence): 0
Plant response rating, Soybean ([5]; Rate 500 g/ha, Preemergence): 1
Plant response rating, Crabgrass ([6]; Rate 62 g/ha, scale of 0 to 10): 6
Crabgrass plant response rating ([6]; Rate 125 g/ha, Postemergence): 4
Plant response rating, Crabgrass ([6]; Rate 125 g/ha): 9
Plant response rating, Crabgrass ([6]; Rate 250 g/ha): 9
Plant response rating, Crabgrass ([6]; Rate 500 g/ha): 10
Plant response rating, Wheat [7, 19]: 0
Wheat plant response rating ([7]; Rate 62 g/ha, Postemergence): 2
Wheat plant response rating ([7]; Rate 125 g/ha, Postemergence): 2
Plant response rating, Wheat ([7]; Rate 125 g/ha, Preemergence): 4
Plant response rating, Wheat ([7]; Rate 250 g/ha, Postemergence): 3
Plant response rating, Wheat ([7]; Rate 250 g/ha, Preemergence): 4
Plant response rating, Wheat ([7]; Rate 500 g/ha, Preemergence): 5
Plant response rating, Nutsedge [8, 19]: 0
Nutsedge plant response rating ([8]; Rate 62 g/ha, Postemergence): 0
Nutsedge plant response rating ([8]; Rate 125 g/ha, Postemergence): 0
Plant response rating, Nutsedge ([8]; Rate 125 g/ha, Preemergence): 0
Plant response rating, Nutsedge ([8]; Rate 250 g/ha, Postemergence): 0
Plant response rating, Nutsedge ([8]; Rate 250 g/ha, Preemergence): 0
Plant response rating, Nutsedge ([8]; Rate 500 g/ha, Preemergence): 0
Plant response rating, Sugarbeets [9, 19]: 9
Sugarbeets plant response rating ([9]; Rate 62 g/ha, Postemergence): 10
Sugarbeets plant response rating ([9]; Rate 125 g/ha, Postemergence): 10
Plant response rating, Sugarbeets ([9]; Rate 125 g/ha, Preemergence): 10
Plant response rating, Sugarbeets ([9]; Rate 250 g/ha, Postemergence): 10
Plant response rating, Sugarbeets ([9]; Rate 250 g/ha, Preemergence): 10
Plant response rating, Sugarbeets ([9]; Rate 500 g/ha, Preemergence): 10
Plant response rating, Rape [10, 19]: 2
Rape plant response rating ([10]; Rate 62 g/ha, Postemergence): 5
Rape plant response rating ([10]; Rate 125 g/ha, Postemergence): 7
Plant response rating, Rape ([10]; Rate 125 g/ha, Preemergence): 3
Plant response rating, Rape ([10]; Rate 250 g/ha, Postemergence): 9
Plant response rating, Rape ([10]; Rate 250 g/ha, Preemergence): 4
Plant response rating, Rape ([10]; Rate 500 g/ha, Preemergence): 4
Plant response rating, Blackgrass [11, 19]: 3
Blackgrass plant response rating ([11]; Rate 62 g/ha, Postemergence): 3
Blackgrass plant response rating ([11]; Rate 125 g/ha, Postemergence): 6
Plant response rating, Blackgrass ([11]; Rate 125 g/ha, Preemergence): 8
Plant response rating, Blackgrass ([11]; Rate 250 g/ha, Postemergence): 8
Plant response rating, Blackgrass ([11]; Rate 250 g/ha, Preemergence): 9
Plant response rating, Blackgrass ([11]; Rate 500 g/ha, Preemergence): 10
Plant response rating, Corn [12, 19]: 0
Corn plant response rating ([12]; Rate 62 g/ha, Postemergence): 2
Corn plant response rating ([12]; Rate 125 g/ha, Postemergence): 3
Plant response rating, Corn ([12]; Rate 125 g/ha, Preemergence): 0
Plant response rating, Corn ([12]; Rate 250 g/ha, Postemergence): 3
Plant response rating, Corn ([12]; Rate 250 g/ha, Preemergence): 1
Plant response rating, Corn ([12]; Rate 500 g/ha, Preemergence): 2
Plant response rating, Velvetleaf [13, 19]: 2
Velvetleaf plant response rating ([13]; Rate 62 g/ha, Postemergence): 8
Velvetleaf plant response rating ([13]; Rate 125 g/ha, Postemergence): 9
Plant response rating, Velvetleaf ([13]; Rate 125 g/ha, Preemergence): 8
Plant response rating, Velvetleaf ([13]; Rate 250 g/ha, Postemergence): 9
Plant response rating, Velvetleaf ([13]; Rate 250 g/ha, Preemergence): 9
Plant response rating, Velvetleaf ([13]; Rate 500 g/ha, Preemergence): 10
Plant response rating, Cocklebur [14, 19]: 0
Cocklebur plant response rating ([14]; Rate 62 g/ha, Postemergence): 7
Cocklebur plant response rating ([14]; Rate 125 g/ha, Postemergence): 7
Plant response rating, Cocklebur ([14]; Rate 125 g/ha, Preemergence): 0
Plant response rating, Cocklebur ([14]; Rate 250 g/ha, Postemergence): 7
Plant response rating, Cocklebur ([14]; Rate 250 g/ha, Preemergence): 2
Plant response rating, Cocklebur ([14]; Rate 500 g/ha, Preemergence): 9
Plant response rating, Redroot pigweed [15, 19]: 9
Redroot pigweed plant response rating ([15]; Rate 62 g/ha, Postemergence): 9
Redroot pigweed plant response rating ([15]; Rate 125 g/ha, Postemergence): 9
Plant response rating, Redroot pigweed ([15]; Rate 125 g/ha, Preemergence): 10
Plant response rating, Redroot pigweed ([15]; Rate 250 g/ha, Postemergence): 10
Plant response rating, Redroot pigweed ([15]; Rate 250 g/ha, Preemergence): 10
Plant response rating, Redroot pigweed ([15]; Rate 500 g/ha, Preemergence): 10
